Data on 17 compounds can be found in US7728001B2 (priority 2004, dated 2010).

Read-outs that look alike come from different tables or passages of the source.

Data set [1] has as its target serotonin 5-HT2A receptor (Homo sapiens, UniProt P28223). The conditions noted are these: cited from earlier work.
Data set [2] deals with humans. The conditions noted are these: cited from earlier work.
Data set [3] concerns opioid receptors. The data set is classed as biochemical.
Data set [4] deals with rhesus monkeys. The conditions noted are these: nonhuman primates, recent report; cited from earlier work.
The test system of data set [5] is rhesus monkeys. Briefly: behavioral / discriminative stimulus effects, generalization to U69,593. Set-up: generalization to U69,593: dose or concentration left out as unconfirmed. The format is in vivo. How it is done:
In an effort to further understand the in vivo pharmacology of these derivatives, propionate 9 was evaluated for behavioral effects in nonhuman primates in a pilot study. […] Propionate 9 generalized to U69,593 in only one of two rhesus monkeys tested, up to the highest dose that could be administered ([…], s.c.).

In data set [6] the target is κ receptors (Homo sapiens, UniProt P41145). Briefly: biochemical. The data set is classed as binding.
Sequence of κ receptors (P41145 whole entry): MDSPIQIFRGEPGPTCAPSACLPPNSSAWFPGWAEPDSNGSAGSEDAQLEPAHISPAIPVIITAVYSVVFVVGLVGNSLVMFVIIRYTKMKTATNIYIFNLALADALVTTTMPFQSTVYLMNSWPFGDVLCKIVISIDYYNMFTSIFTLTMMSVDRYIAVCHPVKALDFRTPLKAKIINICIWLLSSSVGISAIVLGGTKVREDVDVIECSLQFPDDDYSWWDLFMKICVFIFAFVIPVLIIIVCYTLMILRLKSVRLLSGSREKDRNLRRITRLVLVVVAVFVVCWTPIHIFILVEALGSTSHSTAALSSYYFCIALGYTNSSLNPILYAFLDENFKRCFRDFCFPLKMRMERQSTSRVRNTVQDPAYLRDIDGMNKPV
In data set [7] the target is μ receptors (Homo sapiens, UniProt P35372). Briefly: opioid receptor binding affinity, [^125I]IOXY as radioligand (μ). The conditions noted are these: for Ki: [^125I]IOXY radioligand.
Sequence of μ receptors (P35372 whole entry): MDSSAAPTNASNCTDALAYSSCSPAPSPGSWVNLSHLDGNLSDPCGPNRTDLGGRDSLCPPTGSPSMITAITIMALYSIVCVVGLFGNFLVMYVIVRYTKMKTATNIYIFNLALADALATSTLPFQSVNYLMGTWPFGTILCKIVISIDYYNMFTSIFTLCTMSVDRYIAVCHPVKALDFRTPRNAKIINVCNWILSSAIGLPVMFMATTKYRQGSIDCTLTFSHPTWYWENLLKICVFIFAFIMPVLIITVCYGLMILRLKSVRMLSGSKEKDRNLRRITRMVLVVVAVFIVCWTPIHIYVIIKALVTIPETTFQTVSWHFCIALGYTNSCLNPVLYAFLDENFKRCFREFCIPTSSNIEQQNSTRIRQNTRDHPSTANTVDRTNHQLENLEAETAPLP
Data set [8] addresses δ receptors (Homo sapiens, UniProt P41143). Kind of data set: biochemical. The format is binding.

Sequence of δ receptors (P41143 whole entry): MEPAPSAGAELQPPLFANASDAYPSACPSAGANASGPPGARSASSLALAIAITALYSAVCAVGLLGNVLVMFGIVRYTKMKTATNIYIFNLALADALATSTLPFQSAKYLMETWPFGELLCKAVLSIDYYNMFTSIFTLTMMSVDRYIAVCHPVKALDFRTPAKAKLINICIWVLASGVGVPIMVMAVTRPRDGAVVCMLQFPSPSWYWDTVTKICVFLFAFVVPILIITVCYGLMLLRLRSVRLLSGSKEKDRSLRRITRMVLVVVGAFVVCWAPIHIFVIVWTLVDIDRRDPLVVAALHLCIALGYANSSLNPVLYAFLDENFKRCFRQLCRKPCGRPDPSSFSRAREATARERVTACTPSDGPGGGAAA
Sequence of serotonin 5-HT2A receptor (P28223 whole entry): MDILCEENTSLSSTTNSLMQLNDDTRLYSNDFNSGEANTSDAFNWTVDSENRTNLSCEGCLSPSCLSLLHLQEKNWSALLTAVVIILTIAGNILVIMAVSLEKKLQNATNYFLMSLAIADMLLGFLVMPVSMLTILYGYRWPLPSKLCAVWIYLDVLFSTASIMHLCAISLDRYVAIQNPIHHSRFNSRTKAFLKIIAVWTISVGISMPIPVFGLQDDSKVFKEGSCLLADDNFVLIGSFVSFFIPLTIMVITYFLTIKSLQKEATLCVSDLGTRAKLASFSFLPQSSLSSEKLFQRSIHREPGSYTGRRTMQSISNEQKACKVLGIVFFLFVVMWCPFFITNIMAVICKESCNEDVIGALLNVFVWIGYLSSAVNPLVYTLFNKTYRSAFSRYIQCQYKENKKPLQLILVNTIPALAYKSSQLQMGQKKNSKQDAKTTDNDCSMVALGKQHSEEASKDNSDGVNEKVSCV

As to `COC(=O)[C@@H]1C[C@H](OC(C)=O)C(=O)[C@H]2[C@@]1(C)CC[C@H]1C(=O)O[C@H]([C@]3(O)[C@H](OC)O[C@H](OC)[C@H]3O)C[C@]21C`, the melting point is 272 to 274 °C.

`COC(=O)[C@@H]1C[C@H](OC(C)=O)C(=O)[C@H]2[C@@]1(C)CC[C@H]1C(=O)O[C@H]([C@]3(O)[C@@H](OC)O[C@@H](OC)[C@H]3O)C[C@]21C` displayed a melting point of 151 to 153 °C.

Regarding `COC(=O)[C@@H]1C[C@H](OC(C)=O)C(=O)[C@H]2[C@@]1(C)CC[C@H]1C(=O)O[C@H](c3ccoc3)C[C@]21C` [Compound 1, Salvinorin A], in [1], the “activity at the serotonin 5-HT2A receptor” value is listed as “no activity”. The “smoked dose producing profound hallucinations” value in data set [2] is 200 to 500 µg. Further, the functional activity entry in data set [3] ([^35S]GTPγS assay) is “agonists”. Besides, the discriminative stimulus effect result in [4] is recorded as “discriminative stimulus effect similar to the high efficacy κ agonist U69,593”.

Turning to `CCC(=O)O[C@H]1C[C@@H](C(=O)OC)[C@]2(C)CC[C@H]3C(=O)O[C@H](c4ccoc4)C[C@]3(C)[C@H]2C1=O` [Compound 9, (2S,4aR,6aR,7R,9S,10aS,10bR)-9-(propionyloxy)-2-(3-furanyl)dodecahydro-6a,10b-dimethyl-4,10-dioxo-2H-naphtho[2,1-c]pyran-7-carboxylic acid methyl ester], the behavioral effect result in data set [5] (nonhuman primates, pilot study, preliminary results) was “partial κ agonist”. For the same compound, in data set [5] (rhesus monkeys, up to highest dose, s.c.), the “generalization to U69,593” value was “one of two”. Further, in data set [3], the functional activity result was “agonists”. In data set [6] (read-out: Ki at κ receptors), the Ki was found to be 0.0018 µM.

In the case of `COC(=O)[C@@H]1C[C@H](OC(=O)C(C)C)C(=O)[C@H]2[C@@]1(C)CC[C@H]1C(=O)O[C@H](c3ccoc3)C[C@]21C` [Compound 10, (2S,4aR,6aR,7R,9S,10aS,10bR)-9-(isobutyryloxy)-2-(3-furanyl)-dodecahydro-6a,10b-dimethyl-4,10-dioxo-2H-naphtho[2,1-c]pyran-7-carboxylic acid methyl ester], the Ki in data set [6] was 2.98 µM; in [6] (read-out: Ki at κ receptors), 0.019 µM. For the same compound, the “fold reduction of affinity at κ receptors compared to 9” value in data set [6] is recorded as “approximately 10 fold”.

For `C=C(C)C(=O)O[C@H]1C[C@@H](C(=O)OC)[C@]2(C)CC[C@H]3C(=O)O[C@H](c4ccoc4)C[C@]3(C)[C@H]2C1=O` [Compound 11, (2S,4aR,6aR,7R,9S,10aS,10bR)-9-(2-methylacryloyloxy)-2-(3-furanyl)-dodecahydro-6a,10b-dimethyl-4,10-dioxo-2H-naphtho[2,1-c]pyran-7-carboxylic acid methyl ester], the Ki in data set [6] was 0.26 µM; in [6] (read-out: Ki at κ receptors), 0.042 µM. The “fold increase in affinity, printed 'at κ receptors', compared to 10” value in data set [6] is listed as roughly 11 fold.

For `COC(=O)C(=O)O[C@H]1C[C@@H](C(=O)OC)[C@]2(C)CC[C@H]3C(=O)O[C@H](c4ccoc4)C[C@]3(C)[C@H]2C1=O` [Compound 12, Oxalic acid methyl ester (2S,4aR,6aR,7R,9S,10aS,10bR)-7-carbomethoxy-2-(3-furanyl)dodecahydro-6a,10b-dimethyl-4,10-dioxo-2H-naphtho[2,1-c]pyran-9-yl ester], in data set [6], the “fold loss of affinity at κ receptors compared to 11” value was determined as 10 fold. The inhibition constant Ki in [6] (read-out: Ki at κ receptors) was 0.43 µM.

With `COC(=O)[C@@H]1C[C@H](OC(=O)c2ccccc2)C(=O)[C@H]2[C@@]1(C)CC[C@H]1C(=O)O[C@H](c3ccoc3)C[C@]21C` [Compound 13, (2S,4aR,6aR,7R,9S,10aS,10bR)-9-(benzoyloxy)-2-(3-furanyl)-dodecahydro-6a,10b-dimethyl-4,10-dioxo-2H-naphtho[2,1-c]pyran-7-carboxylic acid methyl ester], the functional activity entry in data set [3] is “agonists”. The “fold loss/decrease in affinity at κ receptors compared to 1” value (“fold loss/decrease in affinity” below) in data set [6] was 47 fold. In addition, the Ki in data set [6] (read-out: Ki at κ receptors) came out at 0.09 µM. For the same compound, in [7], the “selectivity for μ opioid receptor” value was “binds selectively to the μ opioid receptor” and the Ki came out at 0.012 µM.

`COC(=O)[C@@H]1C[C@H](OC(=O)c2cccnc2)C(=O)[C@H]2[C@@]1(C)CC[C@H]1C(=O)O[C@H](c3ccoc3)C[C@]21C` [Compound 14, Nicotinic acid (2S,4aR,6aR,7R,9S,10aS,10bR)-7-carbomethoxy-2-(3-furanyl)dodecahydro-6a,10b-dimethyl-4,10-dioxo-2H-naphtho[2,1-c]pyran-9-yl ester]: the Ki in [6] (read-out: Ki at κ receptors) is 1.93 µM; in [7], 0.073 µM. In data set [7] (ratio of Ki vs. 13), the “fold decrease in affinity at μ receptors compared to 13” value was 21 fold.

On to `COC(=O)[C@@H]1C[C@H](OS(C)(=O)=O)C(=O)[C@H]2[C@@]1(C)CC[C@H]1C(=O)O[C@H](c3ccoc3)C[C@]21C` [Compound 15, (2S,4aR,6aR,7R,9S,10aS,10bR)-9-(methanesulfonyloxy)-2-(3-furanyl)-dodecahydro-6a,10b-dimethyl-4,10-dioxo-2H-naphtho[2,1-c]pyran-7-carboxylic acid methyl ester], for which the functional activity result in data set [3] was “agonists”. For the same compound, the Ki in data set [6] (read-out: Ki at κ receptors) was 0.0023 µM.

Regarding `COC(=O)[C@@H]1C[C@H](O[Si](C)(C)C)C(=O)[C@H]2[C@@]1(C)CC[C@H]1C(=O)O[C@H](c3ccoc3)C[C@]21C` [Compound 16, (2S,4aR,6aR,7R,9S,10aS,10bR)-9-(trimethylsilanyloxy)-2-(3-furanyl)-dodecahydro-6a,10b-dimethyl-4,10-dioxo-2H-naphtho[2,1-c]pyran-7-carboxylic acid methyl ester], the “fold loss/decrease in affinity” value in [6] worked out at 847 fold. For the same compound, the inhibitory constant (Ki) in data set [6] (read-out: Ki at κ receptors) is 1.61 µM.

On to `COC(=O)[C@@H]1C[C@H](O)[C@H](O)[C@H]2[C@@]1(C)CC[C@H]1C(=O)O[C@H](c3ccoc3)C[C@]21C` [Compound 18, (2S,4aR,6aR,7R,9S,10R,10aS,10bR)-9,10-(dihydroxy)-2-(3-furanyl)dodecahydro-6a,10b-dimethyl-4-oxo-2H-naphtho[2,1-c]pyran-7-carboxylic acid methyl ester], for which, in data set [8], the “affinity at δ receptors” value was “low affinity”. For the same compound, the “affinity at μ receptors” value in [7] is “low affinity”.

Regarding `COC(=O)[C@@H]1C[C@H](O)[C@H](O)[C@@H]2[C@@]3(C)C[C@@H](c4ccoc4)OC(=O)[C@H]3CC[C@]21C` [Compound 19, (2S,4aS,6aR,7R,9S,10R,10aS,10bR)-9,10-(dihydroxy)-2-(3-furanyl)dodecahydro-6a,10b-dimethyl-4-oxo-2H-naphtho[2,1-c]pyran-7-carboxylic acid methyl ester], the Ki in [8], in [6] and in data set [7] was roughly 10 µM each time.

Take `COC(=O)[C@@H]1C[C@H](OC(C)=O)[C@H](OC(C)=O)[C@H]2[C@@]1(C)CC[C@H]1C(=O)O[C@H](c3ccoc3)C[C@]21C` [Compound 20, (2S,4aR,6aR,7R,9S,10R,10aS,10bR)-9,10-(diacetoxy)-2-(3-furanyl)dodecahydro-6a,10b-dimethyl-4-oxo-2H-naphtho[2,1-c]pyran-7-carboxylic acid methyl ester]: the “fold loss/decrease in affinity” value in data set [6] is reported as 340 fold. In addition, the Ki in data set [6] (read-out: Ki at κ receptors) stood at 0.65 µM.

For the compound `COC(=O)[C@@H]1C[C@H](OC(=N)C(Cl)(Cl)Cl)C(=O)[C@H]2[C@@]1(C)CC[C@H]1C(=O)O[C@H](c3ccoc3)C[C@]21C` [Compound 21, (2S,4aR,6aR,7R,9S,10aS,10bR)-9-(2,2,2-trichloroacetimidoyloxy)-2-(3-furanyl)-dodecahydro-6a,10b-dimethyl-4,10-dioxo-2H-naphtho[2,1-c]pyran-7-carboxylic acid methyl ester], the Ki in [8] (read-out: Ki at δ receptors) is 6.47 µM; in data set [6] (read-out: Ki at κ receptors), 0.064 µM. Also, the “fold loss/decrease in affinity” value in [6] came out at 34 fold.

On to `COC(=O)[C@@H]1C[C@H](OC(=O)Nc2ccccc2)C(=O)[C@H]2[C@@]1(C)CC[C@H]1C(=O)O[C@H](c3ccoc3)C[C@]21C` [Compound 22, (2S,4aR,6aR,7R,9S,10aS,10bR)-9-(phenylcarbamoyloxy)-2-(3-furanyl)-dodecahydro-6a,10b-dimethyl-4,10-dioxo-2H-naphtho[2,1-c]pyran-7-carboxylic acid methyl ester], for which the Ki in [8] (read-out: Ki at δ receptors) is 0.23 µM; in [6] (read-out: Ki at κ receptors), 0.093 µM; in data set [7], 0.016 µM. The “fold loss/decrease in affinity” value in data set [6] worked out at 49 fold.

As for `C=CCNC(=O)O[C@H]1C[C@@H](C(=O)OC)[C@]2(C)CC[C@H]3C(=O)O[C@H](c4ccoc4)C[C@]3(C)[C@H]2C1=O` [Compound 23, (2S,4aR,6aR,7R,9S,10aS,10bR)-9-(allylcarbamoyloxy)-2-(3-furanyl)-dodecahydro-6a,10b-dimethyl-4,10-dioxo-2H-naphtho[2,1-c]pyran-7-carboxylic acid methyl ester], in data set [6], the “fold loss/decrease in affinity” value is given as roughly 300 fold. Besides, the Ki in data set [6] (read-out: Ki at κ receptors) is 0.12 µM.

As a reminder, the melting point is the temperature, or range, at which the solid turns liquid. Broadly, the Ki is a dissociation constant, usually derived from enzyme kinetics or from competition with a known ligand.
